Data from ChEMBL document CHEMBL1155011, “Structure-activity relationships of the cycloalkanol ethylamine scaffold: discovery of selective norepinephrine reuptake inhibitors” (J Med Chem, 2008).
pEC50, pIC50, pKi: −log10 of the molar value.

Assays:
[1] = biological target: T1, Sodium-dependent dopamine transporter (Homo sapiens, UniProt Q01959); experiment: Displacement of [3H]WIN-35428 from human recombinant dopamine transporter expressed in CHO cells at 1000 nM; format: cell-based
[2] = biological target: T2, Sodium-dependent serotonin transporter (Homo sapiens, UniProt P31645); experiment: Inhibition of 5HT uptake at human SERT expressed in human JAR cells at 1000 nM; format: cell-based
Target sequence in this assay (P31645 whole entry, looked up): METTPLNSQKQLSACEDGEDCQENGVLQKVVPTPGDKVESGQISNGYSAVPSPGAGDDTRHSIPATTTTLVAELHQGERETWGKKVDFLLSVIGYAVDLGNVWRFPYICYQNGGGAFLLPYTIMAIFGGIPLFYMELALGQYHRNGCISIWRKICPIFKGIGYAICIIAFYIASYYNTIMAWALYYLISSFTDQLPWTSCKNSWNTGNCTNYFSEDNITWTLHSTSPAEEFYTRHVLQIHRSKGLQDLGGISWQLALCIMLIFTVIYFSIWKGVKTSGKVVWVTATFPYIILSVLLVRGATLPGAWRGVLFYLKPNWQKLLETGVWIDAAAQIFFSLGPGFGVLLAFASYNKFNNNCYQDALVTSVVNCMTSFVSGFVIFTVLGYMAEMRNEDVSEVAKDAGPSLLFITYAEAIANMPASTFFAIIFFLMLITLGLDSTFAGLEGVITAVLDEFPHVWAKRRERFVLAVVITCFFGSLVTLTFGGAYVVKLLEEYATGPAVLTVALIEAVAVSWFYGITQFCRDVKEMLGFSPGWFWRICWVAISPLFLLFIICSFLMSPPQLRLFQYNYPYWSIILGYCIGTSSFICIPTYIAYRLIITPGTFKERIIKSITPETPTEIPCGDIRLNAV

[3] = biological target: T3, Sodium-dependent noradrenaline transporter (Homo sapiens, UniProt P23975)
T3 sequence (P23975 whole entry): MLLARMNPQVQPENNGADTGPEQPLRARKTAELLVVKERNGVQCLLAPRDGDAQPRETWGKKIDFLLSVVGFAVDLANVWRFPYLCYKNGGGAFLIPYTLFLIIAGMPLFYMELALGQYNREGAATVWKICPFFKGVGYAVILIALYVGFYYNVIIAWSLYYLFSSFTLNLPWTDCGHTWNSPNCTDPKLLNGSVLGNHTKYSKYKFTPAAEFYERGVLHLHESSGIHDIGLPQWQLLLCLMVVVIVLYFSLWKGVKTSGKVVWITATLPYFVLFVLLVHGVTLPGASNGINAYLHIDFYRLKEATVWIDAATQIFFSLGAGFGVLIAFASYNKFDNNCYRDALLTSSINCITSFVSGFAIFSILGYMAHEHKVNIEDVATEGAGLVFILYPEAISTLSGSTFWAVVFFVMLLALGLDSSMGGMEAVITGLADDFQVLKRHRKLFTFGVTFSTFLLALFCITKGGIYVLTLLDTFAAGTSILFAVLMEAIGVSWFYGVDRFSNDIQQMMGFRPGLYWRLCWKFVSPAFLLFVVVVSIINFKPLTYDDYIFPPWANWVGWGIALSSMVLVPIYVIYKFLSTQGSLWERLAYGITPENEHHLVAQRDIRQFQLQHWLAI

[4] = biological target: T3, Sodium-dependent noradrenaline transporter; experiment: biochemical
[5] = Plasma concentration in Sprague-Dawley rat at 1 mg/kg, iv after 6 hrs; format: ADME, organism-based; parameters: dose 1 mg/kg, route intravenous
[6] = Half life in Sprague-Dawley rat at 30 mg/kg, po; format: ADME, organism-based; parameters: dose 30 mg/kg, route oral; settings: in vivo
[7] = biological target: T4, 5-hydroxytryptamine receptor 2A (Homo sapiens, UniProt P28223); experiment: Inhibition of 5HT2A receptor by competition radioligand binding assay
T4 sequence (P28223 whole entry): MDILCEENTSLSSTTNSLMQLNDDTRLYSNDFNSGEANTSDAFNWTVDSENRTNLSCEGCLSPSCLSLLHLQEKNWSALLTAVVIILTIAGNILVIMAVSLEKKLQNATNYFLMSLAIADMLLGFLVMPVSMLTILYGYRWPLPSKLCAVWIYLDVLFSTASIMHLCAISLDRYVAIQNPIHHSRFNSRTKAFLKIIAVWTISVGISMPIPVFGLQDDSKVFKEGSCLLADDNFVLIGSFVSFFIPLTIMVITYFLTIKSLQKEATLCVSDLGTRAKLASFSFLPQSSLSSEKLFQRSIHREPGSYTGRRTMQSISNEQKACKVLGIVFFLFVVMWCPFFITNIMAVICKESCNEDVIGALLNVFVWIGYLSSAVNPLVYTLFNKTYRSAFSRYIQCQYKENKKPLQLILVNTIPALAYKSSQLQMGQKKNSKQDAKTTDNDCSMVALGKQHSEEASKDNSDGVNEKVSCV

[8] = biological target: T5, 5-hydroxytryptamine receptor 1B (Homo sapiens, UniProt P28222); experiment: Activity at 5HT1B receptor assessed as calcium mobilization by FLIPR; format: functional
T5 sequence (P28222 whole entry): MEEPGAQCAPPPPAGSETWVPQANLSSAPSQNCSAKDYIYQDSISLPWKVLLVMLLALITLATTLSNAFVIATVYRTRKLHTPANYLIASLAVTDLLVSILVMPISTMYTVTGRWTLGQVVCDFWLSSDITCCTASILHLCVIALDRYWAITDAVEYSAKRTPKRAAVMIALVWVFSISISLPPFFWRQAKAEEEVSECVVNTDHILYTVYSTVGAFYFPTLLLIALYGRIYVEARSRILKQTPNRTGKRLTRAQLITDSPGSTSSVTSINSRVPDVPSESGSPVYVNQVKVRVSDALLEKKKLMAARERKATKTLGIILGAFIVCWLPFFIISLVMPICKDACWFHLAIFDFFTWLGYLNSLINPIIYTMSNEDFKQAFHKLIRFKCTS

[9] = biological target: T6, 5-hydroxytryptamine receptor 2B (Homo sapiens, UniProt P41595); experiment: Inhibition of 5HT2B receptor by competition radioligand binding assay
T6 sequence (P41595 whole entry): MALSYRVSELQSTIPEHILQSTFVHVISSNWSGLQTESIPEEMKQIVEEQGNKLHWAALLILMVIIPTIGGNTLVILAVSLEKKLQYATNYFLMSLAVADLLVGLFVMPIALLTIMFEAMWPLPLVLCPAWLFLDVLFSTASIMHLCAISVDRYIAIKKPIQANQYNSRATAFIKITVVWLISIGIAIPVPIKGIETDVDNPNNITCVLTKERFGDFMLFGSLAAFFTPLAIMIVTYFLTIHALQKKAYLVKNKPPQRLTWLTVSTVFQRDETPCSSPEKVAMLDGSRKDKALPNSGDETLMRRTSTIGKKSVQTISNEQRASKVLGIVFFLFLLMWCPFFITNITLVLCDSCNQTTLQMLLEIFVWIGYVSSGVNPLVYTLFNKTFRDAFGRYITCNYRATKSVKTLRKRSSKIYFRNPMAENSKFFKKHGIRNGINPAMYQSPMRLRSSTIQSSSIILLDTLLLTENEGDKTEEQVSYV

[10] = Plasma concentration in Sprague-Dawley rat at 30 mg/kg, po after 1 hr; format: ADME, organism-based; parameters: dose 30 mg/kg, route oral
[11] = Half life in Sprague-Dawley rat at 30 mg/kg, ip; format: ADME, organism-based; parameters: dose 30 mg/kg, route intraperitoneal; settings: in vivo
Mus musculus [12] = experiment: Antidepressant activity in Swiss Webster mouse assessed as decrease in immobility time at 30 mg/kg, ip after 30 mins by tail suspension test; format: functional; parameters: scale not given: the % may be the effect or the level left; settings: route intraperitoneal
[13] = Inhibition of adrenergic receptor 1 alpha by competition radioligand binding assay
[14] = Plasma concentration in Sprague-Dawley rat at 1 mg/kg, iv after 2 hrs; format: ADME, organism-based; parameters: dose 1 mg/kg, route intravenous
[15] = Cmax in Sprague-Dawley rat at 30 mg/kg, po; format: ADME, organism-based; parameters: dose 30 mg/kg, route oral; settings: in vivo
[16] = Plasma concentration in Sprague-Dawley rat at 30 mg/kg, ip after 6 hrs; format: ADME, organism-based; parameters: dose 30 mg/kg, route intraperitoneal
[17] = Activity at adrenergic receptor 1 alpha assessed as calcium mobilization by FLIPR
[18] = Plasma concentration in Sprague-Dawley rat at 30 mg/kg, po after 8 hrs; format: ADME, organism-based; parameters: dose 30 mg/kg, route oral
Rattus norvegicus [19] = experiment: Effect on ovariectomy-induced thermoregulatory dysfunction in telemetry Sprague-Dawley rat model assessed as mean reduction in tail skin temperature at 30 mg/kg, po after 3 hrs relative to control; format: functional
[20] = Plasma concentration in Sprague-Dawley rat at 1 mg/kg, iv after 4 hrs; format: ADME, organism-based; parameters: dose 1 mg/kg, route intravenous
[21] = AUC (0 to infinity) in Sprague-Dawley rat at 1 mg/kg, iv; format: ADME, organism-based; parameters: time infinity, dose 1 mg/kg, route intravenous; settings: plasma
[22] = biological target: T5, 5-hydroxytryptamine receptor 1B; experiment: Inhibition of 5HT1B receptor by competition radioligand binding assay
[23] = biological target: T7, 5-hydroxytryptamine receptor 6 (Homo sapiens, UniProt P50406); experiment: Inhibition of 5HT6 receptor by competition radioligand binding assay
[24] = biological target: T8, 5-hydroxytryptamine receptor 1D (Homo sapiens, UniProt P28221); experiment: Activity at 5HT1D receptor assessed as calcium mobilization by FLIPR; format: functional
[25] = biological target: T4, 5-hydroxytryptamine receptor 2A; experiment: Activity at 5HT2A receptor assessed as calcium mobilization by FLIPR; format: functional
[26] = biological target: T9, 5-hydroxytryptamine receptor 7 (Homo sapiens, UniProt P34969); experiment: Activity at 5HT7 receptor assessed as calcium mobilization by FLIPR; format: functional
T9 sequence (P34969 whole entry): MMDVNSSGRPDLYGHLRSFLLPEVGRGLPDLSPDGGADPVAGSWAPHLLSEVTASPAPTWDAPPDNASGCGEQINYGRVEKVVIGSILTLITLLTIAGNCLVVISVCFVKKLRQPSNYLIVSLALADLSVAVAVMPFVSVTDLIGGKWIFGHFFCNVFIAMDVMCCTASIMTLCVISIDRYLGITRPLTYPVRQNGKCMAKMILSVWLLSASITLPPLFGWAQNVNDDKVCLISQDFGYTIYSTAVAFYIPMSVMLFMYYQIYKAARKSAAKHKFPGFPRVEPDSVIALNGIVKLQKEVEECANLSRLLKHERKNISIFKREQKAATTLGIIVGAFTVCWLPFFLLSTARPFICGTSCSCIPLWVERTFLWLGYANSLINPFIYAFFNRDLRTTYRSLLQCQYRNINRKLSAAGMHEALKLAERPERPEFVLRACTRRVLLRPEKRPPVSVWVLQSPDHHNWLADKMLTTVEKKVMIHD

[27] = Plasma concentration in Sprague-Dawley rat at 30 mg/kg, ip after […]; format: ADME, organism-based; parameters: dose 30 mg/kg, route intraperitoneal
Mus musculus [28] = experiment: Antidepressant activity in Swiss Webster mouse assessed as decrease in immobility time at 17 mg/kg, ip after 30 mins by tail suspension test; format: functional; parameters: scale not given: the % may be the effect or the level left; settings: route intraperitoneal
[29] = Plasma concentration in Sprague-Dawley rat at 30 mg/kg, ip after 0.033 hrs; format: ADME, organism-based; parameters: dose 30 mg/kg, route intraperitoneal
[30] = Plasma concentration in Sprague-Dawley rat at 30 mg/kg, po after 0.5 hrs; format: ADME, organism-based; parameters: dose 30 mg/kg, route oral
[31] = Cmax in Sprague-Dawley rat at 30 mg/kg, ip; format: ADME, organism-based; parameters: dose 30 mg/kg, route intraperitoneal; settings: in vivo
[32] = Plasma concentration in Sprague-Dawley rat at 30 mg/kg, ip after 1 hr; format: ADME, organism-based; parameters: dose 30 mg/kg, route intraperitoneal
[33] = Plasma concentration in Sprague-Dawley rat at 30 mg/kg, po after 4 hrs; format: ADME, organism-based; parameters: dose 30 mg/kg, route oral
[34] = biological target: T9, 5-hydroxytryptamine receptor 7; experiment: Inhibition of 5HT7 receptor by competition radioligand binding assay
[35] = Plasma concentration in Sprague-Dawley rat at 30 mg/kg, ip after 0.5 hrs; format: ADME, organism-based; parameters: dose 30 mg/kg, route intraperitoneal
[36] = biological target: T8, 5-hydroxytryptamine receptor 1D; experiment: Inhibition of 5HT1D receptor by competition radioligand binding assay
[37] = Plasma concentration in Sprague-Dawley rat at 1 mg/kg, iv after 1 hr; format: ADME, organism-based; parameters: dose 1 mg/kg, route intravenous
[38] = biological target: T7, 5-hydroxytryptamine receptor 6; experiment: Activity at 5HT6 receptor assessed as calcium mobilization by FLIPR; format: functional
[39] = Plasma concentration in Sprague-Dawley rat at 30 mg/kg, po after 6 hrs; format: ADME, organism-based; parameters: dose 30 mg/kg, route oral
[40] = AUC (0 to infinity) in Sprague-Dawley rat at 30 mg/kg, po; format: ADME, organism-based; parameters: time infinity, dose 30 mg/kg, route oral; settings: plasma
Rattus norvegicus [41] = experiment: Effect on ovariectomy-induced thermoregulatory dysfunction in telemetry Sprague-Dawley rat model assessed as mean reduction in tail skin temperature at 30 mg/kg, ip after 6.5 hrs relative to control; format: functional; settings: route intraperitoneal
[42] = biological target: T6, 5-hydroxytryptamine receptor 2B; experiment: Activity at 5HT2B receptor assessed as calcium mobilization by FLIPR; format: functional
[43] = Plasma concentration in Sprague-Dawley rat at 30 mg/kg, ip after 2 hrs; format: ADME, organism-based; parameters: dose 30 mg/kg, route intraperitoneal
[44] = AUC (0 to infinity) in Sprague-Dawley rat at 30 mg/kg, ip; format: ADME, organism-based; parameters: time infinity, dose 30 mg/kg, route intraperitoneal; settings: plasma
[45] = Plasma concentration in Sprague-Dawley rat at 1 mg/kg, iv after 0.5 hrs; format: ADME, organism-based; parameters: dose 1 mg/kg, route intravenous
[46] = Plasma concentration in Sprague-Dawley rat at 30 mg/kg, po after 2 hrs; format: ADME, organism-based; parameters: dose 30 mg/kg, route oral
[47] = Plasma concentration in Sprague-Dawley rat at 30 mg/kg, ip after 4 hrs; format: ADME, organism-based; parameters: dose 30 mg/kg, route intraperitoneal
[48] = Plasma concentration in Sprague-Dawley rat at 30 mg/kg, po after […]; format: ADME, organism-based; parameters: dose 30 mg/kg, route oral
[49] = Plasma concentration in Sprague-Dawley rat at 1 mg/kg, iv after 0.033 hrs; format: ADME, organism-based; parameters: dose 1 mg/kg, route intravenous
[50] = Plasma concentration in Sprague-Dawley rat at 1 mg/kg, iv after […]; format: ADME, organism-based; parameters: dose 1 mg/kg, route intravenous
[51] = Plasma concentration in Sprague-Dawley rat at 30 mg/kg, ip after 8 hrs; format: ADME, organism-based; parameters: dose 30 mg/kg, route intraperitoneal
[52] = biological target: T3, Sodium-dependent noradrenaline transporter; experiment: Displacement of [3H]nisoxetine from human norepinephrine transporter expressed in MDCK-Net6 cells at 1000 nM; format: cell-based
[53] = biological target: T3, Sodium-dependent noradrenaline transporter; experiment: Inhibition of norepinephrine uptake at human norepinephrine transporter expressed in MDCK-Net6 cells at 1000 nM; format: cell-based
Homo sapiens = species on record: Homo sapiens; experiment: Selectivity ratio of IC50 for human NET over IC50 for human SERT
Transporter = Transporter (Rattus norvegicus, UniProt Q63380)
Transporter, sequence (Q63380 whole entry): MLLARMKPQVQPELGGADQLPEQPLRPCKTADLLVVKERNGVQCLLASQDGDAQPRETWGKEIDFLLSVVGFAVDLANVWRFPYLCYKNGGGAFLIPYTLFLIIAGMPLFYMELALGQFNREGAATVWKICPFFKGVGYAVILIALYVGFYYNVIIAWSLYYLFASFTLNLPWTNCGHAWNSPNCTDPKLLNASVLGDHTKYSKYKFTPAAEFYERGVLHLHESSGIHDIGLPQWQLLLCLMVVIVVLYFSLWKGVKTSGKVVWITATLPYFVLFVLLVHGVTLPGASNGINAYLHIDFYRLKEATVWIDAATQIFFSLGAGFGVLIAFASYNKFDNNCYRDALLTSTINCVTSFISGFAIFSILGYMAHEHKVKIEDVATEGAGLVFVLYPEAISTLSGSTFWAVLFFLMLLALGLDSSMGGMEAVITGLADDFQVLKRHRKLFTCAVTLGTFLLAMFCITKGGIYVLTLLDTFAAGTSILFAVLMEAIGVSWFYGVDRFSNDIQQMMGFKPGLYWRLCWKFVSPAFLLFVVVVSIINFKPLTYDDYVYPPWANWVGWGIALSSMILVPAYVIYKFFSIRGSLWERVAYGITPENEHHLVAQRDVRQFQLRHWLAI
Description: Inhibition of norepinephrine uptake at rat brain norepinephrine transporter

[54] = biological target: T2, Sodium-dependent serotonin transporter; format: cell-based, JAR
Target sequence in this assay (P31645 whole entry): as the sequence (P31645 whole entry, looked up) above

[55] = biological target: T1, Sodium-dependent dopamine transporter; experiment: biochemical

T1 sequence (Q01959 whole entry): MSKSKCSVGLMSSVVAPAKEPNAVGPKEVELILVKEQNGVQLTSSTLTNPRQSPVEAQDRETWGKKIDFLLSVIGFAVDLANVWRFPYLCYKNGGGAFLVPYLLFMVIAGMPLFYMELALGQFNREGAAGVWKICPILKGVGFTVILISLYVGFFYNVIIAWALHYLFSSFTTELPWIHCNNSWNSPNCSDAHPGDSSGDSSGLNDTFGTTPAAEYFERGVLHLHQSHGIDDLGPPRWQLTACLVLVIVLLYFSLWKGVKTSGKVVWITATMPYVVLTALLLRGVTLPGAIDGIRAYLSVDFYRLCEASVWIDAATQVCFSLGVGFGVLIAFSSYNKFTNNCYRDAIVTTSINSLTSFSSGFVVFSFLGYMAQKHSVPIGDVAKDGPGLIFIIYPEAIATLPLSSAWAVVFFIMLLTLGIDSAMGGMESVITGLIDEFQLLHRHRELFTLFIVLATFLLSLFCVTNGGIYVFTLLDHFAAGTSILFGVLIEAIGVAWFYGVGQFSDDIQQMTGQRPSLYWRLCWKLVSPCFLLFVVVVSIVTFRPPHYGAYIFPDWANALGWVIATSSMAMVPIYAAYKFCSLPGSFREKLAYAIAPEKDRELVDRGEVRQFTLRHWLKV

## CN1CCN(CC(c2cccc(F)c2)C2(O)CCCCC2)CC1 (stereo unspecified)
[1]
  Activity: 29%
[2]
  inhibition: 12%
[3]
  pIC50: 6.62
[4]
  pKi: 6.44

## CN1CCN(C[C@H](c2cccc(OC(F)(F)F)c2)C2(O)CCCCC2)CC1.Cl.Cl
[5]
  concentration at 6 h: 2.98 ng/mL
[6]
  half-life: 1.6 h
[7]
  pIC50: < 5.00
[8]
  pEC50: < 5.00
[9]
  pIC50: < 5.00
[10]
  concentration at 1 h: 304 ng/mL
[11]
  half-life: 2.3 h
Mus musculus [12]
  Activity: 53%
[13]
  pIC50: < 5.00
[14]
  concentration at 2 h: 55.4 ng/mL
[15]
  Cmax: 324 ng/mL
[1]
  Activity: 6%
[16]
  concentration at 6 h: 303 ng/mL
[17]
  pEC50: < 5.00
[18]
  concentration at 8 h: 14.3 ng/mL
Rattus norvegicus [19]
  Activity: -2.16 °C
[20]
  concentration at 4 h: 19.1 ng/mL
[21]
  AUC(0-inf): 367 ng·h/mL
[22]
  pIC50: < 5.00
[23]
  pIC50: < 5.00
[24]
  pEC50: < 5.00
[25]
  pEC50: < 5.00
[26]
  pEC50: < 5.00
[27]
  concentration at […]: 1580 ng/mL
Mus musculus [28]
  Activity: 38%
[29]
  concentration at 0.033 h: 942 ng/mL
[30]
  concentration at 0.5 h: 323 ng/mL
[31]
  Cmax: 2690 ng/mL
[32]
  concentration at 1 h: 1960 ng/mL
[33]
  concentration at 4 h: 79.5 ng/mL
[34]
  pIC50: < 5.00
[2]
  inhibition: 3%
[35]
  concentration at 0.5 h: 2160 ng/mL
[36]
  pIC50: < 5.00
[37]
  concentration at 1 h: 109 ng/mL
[38]
  pEC50: < 5.00
[39]
  concentration at 6 h: 36.5 ng/mL
[40]
  AUC(0-inf): 931 ng·h/mL
Rattus norvegicus [41]
  Activity: -2.75 °C
[42]
  pEC50: < 5.00
[43]
  concentration at 2 h: 735 ng/mL
[44]
  AUC(0-inf): 6160 ng·h/mL
[45]
  concentration at 0.5 h: 187 ng/mL
[46]
  concentration at 2 h: 182 ng/mL
[47]
  concentration at 4 h: 520 ng/mL
[48]
  concentration at […]: 115 ng/mL
[49]
  concentration at 0.033 h: 164 ng/mL
[50]
  concentration at […]: 225 ng/mL
[51]
  concentration at 8 h: 143 ng/mL

## OC1(C(CN2CCNCC2)c2ccccc2F)CCCCC1 (stereo unspecified)
[52]
  Activity: 38%
[53]
  inhibition: 31%

## CN1CCN(CC(c2cccc(OC(F)(F)F)c2)C2(O)CCCCC2)CC1 (stereo unspecified)
[1]
  Activity: 3%
[2]
  inhibition: 12%

## CN(C)CC(c1ccc(Cl)cc1)C1(O)CCCCC1 (stereo unspecified)
Homo sapiens
  Ratio IC50: 1
[1]
  Activity: 23%
Transporter
  pIC50: 6.52
[54]
  pIC50: 6.91
[3]
  pIC50: 6.92
[4]
  pKi: 6.60

## OC1([C@H](CN2CCNCC2)c2cccc(Cl)c2)CCCCC1
[55]
  pKi: 6.87
[54]
  pIC50: 5.57
[3]
  pIC50: 7.60
[4]
  pKi: 7.77

## CN(C)CC(c1cccc(Cl)c1)C1(O)CCCCC1 (stereo unspecified)
[1]
  Activity: 28%
Transporter
  pIC50: 6.80

## CN1CCN(C[C@@H](c2cccc(OC(F)(F)F)c2)C2(O)CCCCC2)CC1
[1]
  Activity: 5%
[2]
  inhibition: 4%
